“Also recorded” adds a separate entry of the source. Peptide text beside a SMILES is read from it. * marks the point of attachment. X1 = COC(=O)CC(N*)C(=O)COc1c(F)cccc1F; Quinaldoyl = O=C(c1ccc2ccccc2n1)*
Columns and labels:
Assay type in all cases: in vivo, rat
[1] = system: ischemiated and re-perfused hearts; assay: Morphology of the hearts after ischemia-reperfusion; conditions: 30 min occlusion, IP injection 15 min before re-perfusion, 10 days after infarct
Procedure: In the case of reperfusion ischemia model (IR model), the silk wire was untied after 30 min of occlusion. The artery was then cleared and the myocardial territory reperfused. The control animals (sham operated) were submitted to the same surgery protocol as the above animals, but the silk wire was passed under the coronary without making any ligature.
The animals were sacrificed by a lethal injection of pentobarbital. The heart was excised and perfused 2-3 min. using Langendorf reverse route and a calcium-free washing solution (NaCl 117, KCl 5.7, NaHCO3 4.4, KH2PO4 1.5, MgCl2 1.7, HEPES 21, glucose 11, taurine 20, pH 7.2 adjusted to NaOH). The solution was then replaced by a PBS solution at 4% of PFA (about 10 ml). The heart was immersed in this fixation solution for about 1 h, and then washed with PBS 4%.
The animals were submitted to an occlusion of the left coronary artery during 30 min.
15 min before the re-perfusion, the animals were treated by an IP injection of D1 or DMSO. The animals were sacrificed after 72 h, 10 days after re-perfusion for an histological analysis of the hearts. The morphology of the hearts (PFA fixed 4%) 10 days after infarct is illustrated by FIG. 7.

[2] = system: ventricular cardiomyocytes; assay: Patch-clamp electrophysiological recordings on ventricular cardiomyocytes of PMI rats; conditions: for density of transitory current coming out (Ito): cardiomyocytes of the sub-epicardic layer; for membrane capacity (cellular size; hypertrophy induced by myocardial ischemia): cardiomyocytes after 4-5 months
Procedure: The isolated ventricular cardiomyocytes were obtained by enzymatic dissociation with collagenase by Langendorf reversed perfusion (Fauconnier, 2005). The rats were heparinized (0.2 ml, GIBCO® 1000 Ul/ml) and anaesthetized by intraperitoneal injection of pentobarbital ([…], Sanofi Santé, France). The heart was rapidly excised and a retrograde perfusion through the aorta, was performed for 5 min with a calcium-free washing solution (in mM: NaCl 117, KCl 5.7, NaHCO3 4.4, KH2PO4 1.5, MgCl2 1.7, HEPES 21, glucose 11, taurine 20, pH 7.2 (adjusted with NaOH) and O2-bubbled) at 37° C. The solution was then replaced by a similar medium containing 1.3 mg·ml^−1 of collagenase of type IV (Worthington, Freehold, N.J., USA) and perfused during 20-30 min. The heart was then perfused with the initial solution containing 2,3-butanedione monoxime as inhibitor of the muscular contraction (15 mM BDM). The ventricles were then delicately separated and, by mechanic stirring, the cardiomyocytes were liberated in the medium. The dissociated cells were washed in the same solution wherein increased concentrations of CaCl2 were added (0.3, 1, 1.8 mM). The cells of the sub-epicardial layer (EPI) were separated from the sub-endocardial layer (ENDO) by simple manual dissection.
The potentials of action (PA) and ionic currents were measured by the patch-clamp technique in whole cell configuration using an amplifier RK 400 (Biologic, Claix France) interfaced by a analogical/numerical converter DIGIDATA 1200 (Axon Instrument, Sunnyvale, Calif., USA) controlled by a PC. The acquisition and analysis of the data were realized with pCLAMP program (Axon Instrument, Sunnyvale, Calif., USA). The sampling frequency was of 10 KHz and the signals filtrated at 3 KHz. Pipettes comprised between 1 and 1.5 MΩ were used to ensure a good quality of voltage. For the measure of the potentials of action, the pipettes were filled with an internal solution (in mM: 130 KCl, 25 HEPES, 3 MgATP, 0.4 NaGTP, and 0.5 EGTA; the pH was adjusted at 7.2 with KOH). The external medium was composed of (in mM): 135 NaCl, 1 MgCl2, 4 KCl, 11 glucose, 2 HEPES, and 1.8 CaCl2; the pH was adjusted to 7.2. with NaOH.
The PA were started by injections of current of 0.2 ms at an intensity slightly higher than the supraliminal intensity threshold. The transitory potassium current coming out (Ito) was measured with the same internal and external solution (10 μM of tetrodotoxine (TTX) and 2 mM of cobalt chloride were added to the external medium to become independent from the […] and calcic currents, respectively. Ito was measured from depolarizing pulses.
The patch-clamp electrophysiological technique enables the membrane capacity (which reflects the cellular size) to be measured (this capacity reflects the cellular size). The results obtained with the above animals groups confirm the hypertrophy induced by the myocardial ischemia.

[3] = system: single ventricular cardiomyocytes; assay: Ca2+ handling and cell shortening of cardiomyocytes isolated after ischemia-reperfusion; conditions: 30 min ischemia, 10 days reperfusion; for sarcoplasmic reticulum Ca2+ load: 10 mM caffeine, versus sham-operated; for amplitude of cytosolic Ca2+ transients: 0.5 Hz field stimulation
Procedure: Experiments were carried out on single ventricular cardiomyocytes isolated from rats after 30 minutes of myocardial ischemia followed by 10 days of reperfusion. Cardiomyocytes were loaded with a fluorescent calcium indicator (Fluo4) in order to measure calcium transient evoked by 0.5 Hz field stimulation. Cell shortening was also simultaneously recorded as an index of cardiomyocyte contraction. […] These deleterious effects classically reported by others in similar experimental conditions Under TRP601 or QV-D-oph treatment Ca^2+ transients amplitude was unchanged B. Similarly, Ca^2+ release kinetics estimated by the amplitude/time to peak (TT) ratio was slowed down in cardiomyocytes of untreated animals, whereas under TRP601 or QV-D-oph treatment Ca^2+ release was unaffected. C. Altered Ca^2+ transient kinetics in vehicle-treated animal are accompanied by a decrease in sarcoplasmic reticulum Ca^2+ load (estimated by application of 10 mM caffeine). […] (*p<0.05 compared to sham-operated animals, n≧5 animals).

[4] = system: rats with permanent ligature of the left coronary artery (PMI); assay: Survival of animals after chronic ischemia (PMI); conditions: intraperitoneal injection 5-15 min before occlusion
Procedure: The analyses were performed on 2 myocardial ischemia models: a chronic ischemia model and an acute ischemia model, followed by myocardial reperfusion after 30 min of occlusion.
Said models were realized with Wistar male rats (180-220 g). The coronary artery was ligatured according to Pfeffer et al protocol.
Briefly, the rats were anaesthetized by intraperitoneal administration of a mixture of Ketamine (150 mg/kg) and Xylazine (15 mg/kg), then intubated and mechanically ventilated. The animals were submitted to a left and median thoracotomy. An occlusion of the coronary artery was done with a silk wire (size: 7.0) at the more proximal point and below the auricle.
In the case of chronic ischemia, the ligature was maintained and the rib cage of the animal reclosed (PMI model for post myocardial infarction).
The effect of the blocking of the caspase activity by Q-VD-OPH or by D1 on animals survival […] after infarction are given on FIG. 3. (A) over a period of 140 days; (B) the injection of the inhibitors or vehicle (DMSO) was carried out by intraperitoneal route 5-15 min before the occlusion of the coronary artery.
The animals having undergone a permanent ligature of the left coronary artery (PMI) were maintained alive during 4-5 months before performing the in vivo and ex vivo functional exploration. The death of the animals during this period was followed up.

SMILES: COC(=O)CC(NC(=O)[C@H](C)NC(=O)[C@@H](NC(=O)[C@H](CC(=O)OC)NC(=O)[C@@H](NC(=O)c1ccc2ccccc2n1)C(C)C)C(C)C)C(=O)COc1c(F)cccc1F (stereo partly drawn) [D1, (3S,6S,9S,12S)-methyl 15-(2-(2,6-difluorophenoxy)acetyl)-3,9-diisopropyl-6-(2-methoxy-2-oxoethyl)-12-methyl-1,4,7,10,13-pentaoxo-1-(quinolin-2-yl)-2,5,8,11,14-pentaazaheptadecan-17-oate] (Quinaldoyl-VD(OMe)VA-X1)
- heart size (cardiac hypertrophy) [1]: prevents cardiac hypertrophy
- density of transitory current coming out (Ito) [2]: very preserved; also recorded: significantly restored
- membrane capacity (cellular size; hypertrophy induced by myocardial ischemia) ([2]; pre-treatment): highly prevented
- potential of action (PA) duration remodeling, transmural EPI/ENDO gradient ([2]; pre-treatment, sub-epicardial and sub-endocardial cardiomyocytes): total absence of PA remodeling
- Ca2+ release kinetics (amplitude/time to peak ratio) [3]: unaffected
- cell shortening [3]: avoided cell shortening decreasing
- sarcoplasmic reticulum Ca2+ load [3]: not significantly different
- amplitude of cytosolic Ca2+ transients [3]: unchanged

SMILES: CC(C)[C@H](NC(=O)c1ccc2ccccc2n1)C(=O)N[C@@H](CC(=O)O)C(=O)COc1c(F)cccc1F [Q-VD-OPH]
- animal survival over about 140 days post-infarctus [4]: survival curve superimposes on the one of the PMI group
- density of transitory current coming out (Ito) [2]: do not present any improvement; also recorded: no effect
- membrane capacity (cellular size; hypertrophy induced by myocardial ischemia) ([2]; pre-treatment): has not effect
- Ca2+ release kinetics (amplitude/time to peak ratio) [3]: unaffected
- cell shortening [3]: avoided cell shortening decreasing
- sarcoplasmic reticulum Ca2+ load [3]: not significantly different
- amplitude of cytosolic Ca2+ transients [3]: unchanged
